Patent US5266328A, “Laminin a chain polypeptides from the carboxy terminal globular domain” (Regents of the University of Minnesota, priority 1990, dated 1993)

What was measured:
[1] = tested on: human renal (SN12C) cells; test: Cell spreading assay; type: cell-based; settings: wells coated at 100 μg/ml, 2 1/2 hour incubation
Description: (§1) Spreading of the adherent cells was evaluated by performing adhesion assays similar to those described above. Twenty-four well tissue culture plates (Becton Dickinson and Co., Lincoln Park, N.J.) were coated with 300 μl of laminin, synthetic peptides, or BSA at 100 μg/ml, then blocked with 2 mg/ml BSA in PBS. Three hundred microliters of a cell suspension at 5×10^4 cells/ml was added to each well, and after a 21/2 hour incubation, nonadherent cells were aspirated out of the wells. Adherent cells were fixed with 2% glutaraldehyde in PBS at 23° C. for one hour. The glutaraldehyde was then removed and the cells were stained by two different techniques. For photographic purposes, the cells were stained with Diff-Quik Solution I (American Scientific Products, McGaw Park, Ill.) for 10 minutes at 23° C. Solution I was removed, then Diff-Quik Solution II was added and the cells were stained for another 10 minutes at 23° C. Wells were washed with PBS, then representative cells were photographed with a Nikon DIAPHOT inverted phase microscope using Panatomic X Film ASA32 (Eastman Kodak, Rochester, N.Y.). Adherent cells to be quantitated for spreading were stained overnight at 23° C. with 500 μl of a solution containing 0.12% (w/v) Coomassie Brilliant Blue R (Sigma Chemical Co.), 5% (v/v) acetic acid, and 50% (v/v) ethanol. Wells were washed three times with 500 μl of PBS and cell spreading was then quantitated by measuring the average surface area occupied by a cell using an Opti-Max Image Analyzer. Thirty cells were measured per well; each experiment was done in quadruplicate and repeated three times. In all cases, the cells spread on the peptides to occupy an area about 60% of that seen on laminin-coated surfaces.

[2] = tested on: HT-1080 human fibrosarcoma cells; test: Cell spreading assay; type: cell-based
Description: as §1

[3] = tested on: murine fibrosarcoma (MM) cells; test: Cell spreading assay; type: cell-based; settings: wells coated at 100 μg/ml, 2 1/2 hour incubation
Description: as §1

[4] = tested on: human renal (SN12 PM6) cells; test: Cell spreading assay; type: cell-based; settings: wells coated at 100 μg/ml, 2 1/2 hour incubation
Description: as §1

[5] = tested on: human colon carcinoma KM12 SM (high metastatic) cell line; test: Direct cell adhesion to peptide-coated surfaces; type: cell-based; settings: surface coated with 1 μg
From the text: (§2) The murine melanoma K-1735-C10 (low metastatic) and K-1735-M4 (high metastatic) cell lines, murine UV-2237-MM fibrosarcoma cell line, human renal carcinoma SN12 C (low metastatic) and SN12 PM-6 (high metastatic) cell lines, and human colon carcinoma KM12 C (low metastatic) and KM12 SM (high metastatic) cell lines were originally provided by Dr. I. J. Fidler (M.D., Anderson Hospital, University of Texas Health Sciences Center, Houston, Tex.). The human fibrosarcoma HT-1080 cell line was obtained from the ATCC. The MM fibrosarcoma cell line was maintained in DME (GIBCO Laboratories, Grand Island, N.Y.) containing 10% FBS, the murine melanomas were maintained in DMEM containing 10% calf serum, the human fibrosarcoma cells were maintained in EMEM containing 10% heat inactivated FBS, and the human renal and colon carcinoma cells were grown in EME containing 10% FBS, vitamins, and 1 mM sodium pyruvate. Cells were passaged for 4 to 5 weeks and then replaced from frozen stocks of early passage cells to minimize phenotypic drift. Cells were maintained at 37° C. in a humidified incubator containing 5% CO2.
(§3) The direct adhesion of cells to protein or peptide coated surfaces was performed as described in Skubitz et al., Exp. Cell Res., 173, 349-360 (1987) and Charonis et al., supra (1988). Briefly, radiolabeled cells were added to 96-well microtiter plates coated with various concentrations of synthetic peptides, laminin, or BSA (0.02 μg/well-50 μg/well from 50 μl solutions) for various lengths of time. After the incubation period, loosely or nonadherent cells were removed by washing the wells three times. Adherent cells were solubilized and quantitated in a scintillation counter. More specifically, cultures of cells which were 60-80% confluent were metabolically labeled for 24 hours with the addition of 3 μCi/ml of ^3 H-td (tritiated thymidine). On the day of the assay, the cells were harvested by trypsinization, the trypsin was inhibited by the addition of serum, and the cells were washed free of this mixture and resuspended in DMEM buffered with HEPES at pH 7.2. The adhesion medium also contained 2 mg/ml BSA. The cells were adjusted to a concentration of 3-4×10^4 /ml, and 100 μl of this cell suspension was added to the wells. The assay mixture was then incubated at 37° C. for 120 minutes. At the end of the incubation, the wells were washed with warm DMEM/Hepes containing 2 mg/ml BSA, and the adherent population was solubilized with 0.5N NaOH contained 1% SDS. The solubilized cells were then quantitated using a liquid scintillation counter.
(§4) Instead of attempting to characterize the cell binding activity of all 14 of the synthetic peptides, a number of peptides from each of the three heparin binding categories of peptides were evaluated. Microtiter wells were adsorbed with the peptides, laminin, or BSA and a variety of tumor cell lines were tested for the ability to adhere to the ligands. The eight different cell lines selected for this study were of murine or human origin and, in most cases, of either high or low metastatic capacity. […] Many of the peptides that were very good at binding heparin and cells were also capable of inhibiting the adhesion of various cells to surfaces coated with laminin (see below).

[6] = tested on: murine UV-2237-MM fibrosarcoma cell line; test: Direct cell adhesion to peptide-coated surfaces; type: cell-based; settings: surface coated with 1 μg
From the text: as §2, §3, §4

[7] = tested on: human colon carcinoma KM12 C (low metastatic) cell line; test: Direct cell adhesion to peptide-coated surfaces; type: cell-based; settings: surface coated with 1 μg
From the text: as §2, §3, §4

[8] = tested on: human renal carcinoma SN12 C (low metastatic) cell line; test: Direct cell adhesion to peptide-coated surfaces; type: cell-based; settings: surface coated with 1 μg; human renal (SN12C)
From the text: as §2, §3, §4

[9] = tested on: human renal carcinoma SN12 PM-6 (high metastatic) cell line; test: Direct cell adhesion to peptide-coated surfaces; type: cell-based; settings: surface coated with 1 μg; human renal (SN12 PM6)
From the text: as §2, §3, §4

[10] = tested on: murine melanoma K-1735-C10 (low metastatic) cell line; test: Direct cell adhesion to peptide-coated surfaces; type: cell-based; settings: surface coated with 1 μg
From the text: as §2, §3, §4

[11] = tested on: murine melanoma K-1735-M4 (high metastatic) cell line; test: Direct cell adhesion to peptide-coated surfaces; type: cell-based; settings: surface coated with 1 μg
From the text: as §2, §3, §4

[12] = tested on: human fibrosarcoma HT-1080 cell line; test: Direct cell adhesion to peptide-coated surfaces; type: cell-based; settings: surface coated with 1 μg; human fibrosarcoma (HT1080)
From the text: (§5) The murine melanoma K-1735-C10 (low metastatic) and K-1735-M4 (high metastatic) cell lines, murine UV-2237-MM fibrosarcoma cell line, human renal carcinoma SN12 C (low metastatic) and SN12 PM-6 (high metastatic) cell lines, and human colon carcinoma KM12 C (low metastatic) and KM12 SM (high metastatic) cell lines were originally provided by Dr. I. J. Fidler (M.D., Anderson Hospital, University of Texas Health Sciences Center, Houston, Tex.). The human fibrosarcoma HT-1080 cell line was obtained from the ATCC. […]
(§6) The direct adhesion of cells to protein or peptide coated surfaces was performed as described in Skubitz et al., Exp. Cell Res., 173, 349-360 (1987) and Charonis et al., supra (1988). […] Adherent cells were solubilized and quantitated in a scintillation counter. […] The solubilized cells were then quantitated using a liquid scintillation counter.
(§7) Instead of attempting to characterize the cell binding activity of all 14 of the synthetic peptides, a number of peptides from each of the three heparin binding categories of peptides were evaluated. […]
Radiolabeled HT-1080 human fibrosarcoma cells were incubated in the wells for 30 minutes and the adhesion of cells was quantitated.

[13] = tested on: human fibrosarcoma (HT1080) cells; test: Inhibition of cell adhesion to laminin-coated surfaces; type: cell-based; settings: soluble peptide 20 μg/ml, surface coated with 1.5 μg of laminin
From the text: as §2
(§8) Inhibition of cell adhesion with synthetic peptides was performed using assays similar to those described by Skubitz et al., supra (1987). Briefly, radiolabeled cells at 5×10^4 /ml were incubated for 30 minutes with various concentrations of synthetic peptides (1.0 μg/ml-200 μg/ml) in DME/Hepes containing 2 mg/ml BSA. One hundred microliters of the cell suspension was then added to wells precoated with 1.5 μg of laminin, 1.0 μg of type IV collagen, or 1.0 μg of fibronectin. The cells were incubated for 30 minutes at 37° C., then the wells were washed and adherent cells were quantitated as previously described [Skubitz et al., supra (1987)]. Cell viability after a one hour incubation in the presence of the "inhibitors" was assessed by trypan blue dye exclusion.

[14] = tested on: human renal (SN12C) cells; test: as above; type: cell-based; settings: soluble peptide 10 μg/ml, surface coated with 1.5 μg of laminin
From the text: as §2, §8

[15] = tested on: murine fibrosarcoma (MM) cells; test: as above; type: cell-based; settings: soluble peptide 10 μg/ml, surface coated with 1.5 μg of laminin
From the text: as §2, §8

[16] = tested on: human renal (SN12 PM6) cells; test: as above; type: cell-based; settings: soluble peptide 10 μg/ml, surface coated with 1.5 μg of laminin
From the text: as §2, §8

[17] = tested on: murine melanoma (M4) cells; test: as above; type: cell-based; settings: soluble peptide 10 μg/ml, surface coated with 1.5 μg of laminin
From the text: as §2, §8

[18] = tested on: human colon (KM12 C) cells; test: as above; type: cell-based; settings: soluble peptide 10 μg/ml, surface coated with 1.5 μg of laminin
From the text: as §2, §8

[19] = tested on: murine melanoma (C10) cells; test: as above; type: cell-based; settings: soluble peptide 10 μg/ml, surface coated with 1.5 μg of laminin
From the text: as §2, §8

[20] = tested on: eight different cell lines of murine or human origin; test: Direct cell adhesion, summary over eight tumor cell lines; type: cell-based; settings: summary of Table IV over eight cell lines
From the text: as §5, §6, §7

[21] = Solid-phase binding of 3H-heparin to peptides adsorbed to plastic plates (RLBA)
Description: The binding of ^3 H-heparin to laminin A chain peptides was measured in a direct solid phase binding assay as described below, whereby various amounts of the peptides were adsorbed to plates and ^3 H-heparin was added to each well. More specifically, the binding of ^3 H-heparin (0.3 mCi/mg; Du Pont - New England Nuclear Research Products, Wilmington, Del.) to laminin, synthetic peptides, and bovine serum albumin (BSA) (fatty acid free, fraction V, ICN Immunobiologicals) was quantititated by a solid-phase RLBA in 96-well polystyrene Immulon 1 plates (Dynatech Laboratories, Inc., Alexandria, Va.) as described by Skubitz et al., supra (1988). Specifically, 50 microliters of the various proteins at various concentrations (0.2 μg/well-5.0 μg/well) in PBS containing 0.02% NaN3 was added to each well and dried overnight at 29° C. The next day, 200 μl of 2 mg/ml BSA in PBS was added to each well, followed by a 2 hour incubation at 37° C. After removal of this buffer, 50 μl of ^3 H-heparin (200,000 dpm) was added in RLBA buffer (20 mM Tris, pH 6.8 containing 50 mM NaCl and 2 mg/ml ovalbumin) and the wells were incubated at 37° C. for 2 hours. Unbound ^3 H-heparin was removed by washing three times with wash buffer (RLBA buffer containing 0.1% CHAPS). Tritiated heparin was solubilized by incubation with 200 μl of 0.05N NaOH and 1% SDS for 30 minutes at 60° C. and quantitated in a Beckman LS-3801 scintillation counter.
The above experimental procedure was repeated to determine the percentage of ^3 H-heparin that would adhere to 2 μg/well of each polypeptide after a two-hour incubation in increasing concentrations of salt (NaCl).

KQNCLSSRASFRGCVRNLRLSR [Peptide R30, laminin A chain residues 3011-3032]
Surface Area Occupied by a Cell [1]: 292 ± 22 μm^2 | HT-1080 cell spreading, in words ([2]; ranking of Table VII): promoted the most cell spreading | Surface Area Occuppied by a Cell ([2]; wells coated at 100 μg/ml, 2 1/2 hour incubation, HT-1080, Table VII): 392 +/- 27 um2 | Surface Area Occupied by a Cell ([2]; wells coated at 100 μg/ml, 2 1/2 hour incubation, human fibrosarcoma (HT1080), Table VI): 392 ± 27 μm^2 | Surface Area Occupied by a Cell [3]: 291 ± 21 μm^2 | Surface Area Occupied by a Cell [4]: 311 ± 19 μm^2 | Percentage of Cells Adhered to Surface [5]: 69% | Percentage of Cells Adhered to Surface [6]: 56% | Percentage of Cells Adhered to Surface [7]: 48% | Percentage of Cells Adhered to Surface [8]: 84% | Percentage of Cells Adhered to Surface [9]: 67% | Percentage of Cells Adhered to Surface [10]: 82% | Percentage of Cells Adhered to Surface [11]: 25% | Percentage of Cells Adhered to Surface [12]: 92% | Percentage Inhibition of Laminin-Mediated Cell Adhesion [13]: 51% | Percentage Inhibition of Laminin-Mediated Cell Adhesion [14]: 0% | Percentage Inhibition of Laminin-Mediated Cell Adhesion [15]: 25% | Percentage Inhibition of Laminin-Mediated Cell Adhesion [16]: 44% | Percentage Inhibition of Laminin-Mediated Cell Adhesion [17]: 38% | Percentage Inhibition of Laminin-Mediated Cell Adhesion [18]: 59% | Percentage Inhibition of Laminin-Mediated Cell Adhesion [19]: 22% | promotion of cell adhesion, in words [20]: capable of promoting the adhesion of all eight cell lines | Heparin Binding (bound ^3 H-heparin as percent of input) ([21]; One microgram peptide adsorbed, 200,000 dpm ^3 H-heparin, 20 mM Tris pH 6.8, 50 mM NaCl, 2 mg/ml ovalbumin): **** (>10% [****]) | Bound ^3 H-heparin as percent of input, 0.05M NaCl ([21]; Two micrograms peptide adsorbed, 0.02M Tris pH 6.8, 0.05M NaCl, 2 hr 37 C): **** (>10% (****)) | Bound ^3 H-heparin as percent of input, 0.15M NaCl ([21]; Two micrograms peptide adsorbed, 0.02M Tris pH 6.8, 0.15M NaCl, 2 hr 37 C): **** (>10% (****)) | Bound ^3 H-heparin as percent of input, 0.5M NaCl ([21]; Two micrograms peptide adsorbed, 0.02M Tris pH 6.8, 0.5M NaCl, 2 hr 37 C): *** (6.0-10.0% (***)) | Bound ^3 H-heparin as percent of input, 1.0M NaCl ([21]; Two micrograms peptide adsorbed, 0.02M Tris pH 6.8, 1.0M NaCl, 2 hr 37 C): * (2.0-3.9% (*)) | Heparin binding activity group ([21]; grouping of the Table II results in words): very good heparin binding
